Laboratory results published in patent US9867841B2, “Compounds, compositions and methods using E-selectin antagonists for mobilization of hematopoietic cells” (GLYCOMIMETICS, INC., priority 2012, dated 2018).

System: WBC, lymphocytes, monocytes, eosinophils, and neutrophils in circulation
Assay: Mobilization of blood cells in CD-1 mice (Example 5, FIG. 5)
Assay type: in vivo
Settings: AMD3100 dosed at 3 mg/kg
Experimental: Blood was collected from the animals at 2, 3, and 6 hours post dosing and analyzed for levels of total white blood cells (WBC) (Figure SA), neutrophils (FIG. 5B), eosinophils (FIG. 5C), lymphocytes (FIG. 5D), monocytes (FIG. 5E).
Blood was collected from the animals at 2, 3, and 6 hours post dosing and analyzed for levels of blood cells (WBC, lymphocytes, monocytes, eosinophils, and neutrophils) by standard CBC differential analyses methods.

c1cc(CN2CCCNCCNCCCNCC2)ccc1CN1CCCNCCNCCCNCC1 [AMD3100]
level and timing of WBC mobilization compared with Compound 25: generally equivalent to that elicited by Compound 25
